Reference: BindingDB's records for doi:10.7270/Q2HD7T4S (Sanford-Burnham Center For Chemical Genomics, 2008)

Target: E3 ubiquitin-protein ligase XIAP (Homo sapiens, UniProt P98170)
Test: small molecules displacing peptide from XIAP – biochemical, IAP family, fluorescence polarization (AID 1018)

Sequence of E3 ubiquitin-protein ligase XIAP (P98170 whole entry): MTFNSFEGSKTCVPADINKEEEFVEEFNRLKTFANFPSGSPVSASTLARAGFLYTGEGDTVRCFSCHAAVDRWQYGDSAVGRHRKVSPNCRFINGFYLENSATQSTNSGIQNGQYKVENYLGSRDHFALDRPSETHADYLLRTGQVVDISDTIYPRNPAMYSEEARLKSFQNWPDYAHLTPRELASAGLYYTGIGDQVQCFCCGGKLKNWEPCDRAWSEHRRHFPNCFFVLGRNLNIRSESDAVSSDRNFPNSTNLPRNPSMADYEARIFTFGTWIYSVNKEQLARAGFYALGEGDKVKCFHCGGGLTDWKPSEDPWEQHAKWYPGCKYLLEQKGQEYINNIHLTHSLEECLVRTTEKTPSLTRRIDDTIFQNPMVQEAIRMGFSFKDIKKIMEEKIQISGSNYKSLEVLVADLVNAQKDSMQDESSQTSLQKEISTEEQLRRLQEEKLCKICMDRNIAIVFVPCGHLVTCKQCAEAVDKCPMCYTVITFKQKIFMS

IC50, > 100 µM:
CCOc1ccccc1NC(=O)C1C(C)=NC(=S)NC1c1cccs1 (stereo not given) [N-(2-ethoxyphenyl)-6-methyl-2-sulfanylidene-4-thiophen-2-yl-3,4-dihydro-1H-pyrimidine-5-carboxamide]
COc1cc(CN=Nc2cc(C)nc(NS(=O)(=O)c3ccc(C)cc3)n2)ccc1O
O=C(CC=Nc1ccc(Nc2ccccc2)cc1)c1cccs1 [(E)-3-(4-anilinoanilino)-1-thiophen-2-yl-2-propen-1-one]
COc1cccc(C(=O)CC=Nc2cc(C)ccc2O)c1 [MLS000088060]
COc1ccc(CN=Nc2nc(N3CCCC3)nc(N3CCCC3)n2)cc1 [MLS000704198]
COc1cc(CN=Nc2nc(Nc3ccc(C)cc3)nc(-n3nc(C)cc3C)n2)cc(OC)c1OC
O=C(O)c1cccc(-n2c(O)c3c(c2O)CC(Cl)=CC3)c1 [3-[5-chloranyl-1,3-bis(oxidanylidene)-3a,4,7,7a-tetrahydroisoindol-2-yl]benzoic acid]
Cc1cc(=O)[nH]c(N=NC(CC(C)C)CC(C)C)n1
COc1ccc(C(=O)C2C(=O)C(=O)N(CC3CCCO3)C2c2cccc(OC)c2)cc1 (stereo not given) [(4Z)-4-[hydroxy-(4-methoxyphenyl)methylene]-5-(3-methoxyphenyl)-1-(tetrahydrofurfuryl)pyrrolidine-2,3-quinone]
Cc1cccc(N(CC(N)=O)c2sc(=O)n(-c3ccccc3)c2O)c1 [SMR000009552]
